The text below walks through data of patent US20100144854A1 (priority 2007, published 2010).

What all share (type): in vivo, human
In data set [1] the test system is Melanoma of the left lower leg. The data set can be described thus: Example 11: patient with melanoma treated with 5% rhodamine 6G ointment. The settings on record: Patient Sh., 75.
In data set [2] the test system is amyloidosis. The data set can be described thus: Example 1: patient with amyloidosis treated with rhodamine 6G. The settings on record: Patient V. As to the method:
Patient V. Diagnosis: amyloidosis. The patient felt lethargic and “under the weather”. […] The first course of treatment with the preparation consisted of 15 drops of a 1% solution in a glass of water three times a day by mouth, at the evening meal in addition a microenema of 10 drops of a 1% solution in 30 ml of water, and at night a 1% suppository containing the preparation. […] By the third week after the start of treatment the patient's condition had improved. In the words of relatives, the patient was “feeling better”. […] Blood analyses against the treatment background were normal.

The subject of data set [3] is Recurring cancer of the right ovary. The data set can be described thus: Example 8: patient with recurring ovarian cancer treated with rhodamine 6G enema. The settings on record: Patient T, 52; third day after start; enema 5 g per day. How it is done:
In connection with the detection of carcinoma of the left ovary the patient underwent a hysterectomy.
After the operation the patient was given a 2-year course of chemotherapy. The patient subsequently complained of pain in the rectum and tenesmus.
Diagnosis: Recurring cancer of the right ovary.
In view of the ineffectiveness of continuing the chemotherapy, the patient was treated with the preparation in the form of an enema.

For data set [4], the system named is primary generalized amyloidosis. The data set can be described thus: Example 10: patient with primary generalized amyloidosis treated with rhodamine 6G. The settings on record: Patient T, 67. An excerpt: Patient T. Diagnosis: Ischemic heart disease: Atherosclerosis, cardiosclerosis, atrial fibrillation. Amyloidosis? On account of deterioration in the patient's condition (increased frequency of dyspnea) the patient was hospitalised. On admission the patient's overall condition was fairly serious. Skin and visible mucous membranes normal colour, moderately cyanosed lips. Heart sounds—muffled, arrhythmia—atrial fibrillation with frequency of ventricular contractions 110 beats/min (pulse deficiency 12), blood pressure 100/60 mm Hg. In left lung, dull percussion sound below the middle of the shoulder blade; no breathing detected above this region. Individual moist rales heard to the right in the projection of the lower lobe. Diseased liver, lower edge extending 4 cm below the level of the costal margin. Edema of the legs as far as middle third of femur and anasarca were diagnosed.
Low voltage waves recorded on ECG, taxistological shape of atrial fibrillation, QS in leads V1-V4. […] Disturbed diastolic relaxation of myocardium of left ventricle was noted. […] In the biochemical blood analysis the level of total protein was reduced (down to 50 g/l), while the levels of urea (to 9.66 mmol/l) and creatinine (to […]) were both raised. […] Ultrasound investigation of organs of the abdominal cavity: enlarged liver (right lobe—16.9 cm), echogenicity reduced, and irregular structure; portal vein−15 mm. Gall bladder: 52×22 mm, wall up to 4 mm, unobstructed lumen. Pancreas: uniform, echogenicity raised, focalized diffuse changes. […] Calyculate-pelvic system of both kidneys not enlarged. Fogging of the lung pattern and diffuse changes were observed on an anterioposterior chest X-ray. A needle liver biopsy was performed in order to exclude amyloidosis. Signs of primary amyloidosis were detected. […] 5% suppositories in the rectum at night. Treatment according to this regimen was continued for 2 months. […] Intravenous administration twice a week. The course of treatment lasted 2 months. […] The liver and kidneys were normal size on an ultrasound scan.

The subject of data set [5] is Adenocarcinoma of the prostate. The experiment in a line: Example 7: patient with prostate adenocarcinoma treated with rhodamine 6G. The settings on record: Patient Sh., 55. As to the method: The patient presented complaining of a sharp pain when urinating and of retention and reddish color of the urine. On examination: Ultrasound scan—prostate approximately 85 cm^3, tumor with irregular contours, 34×40 mm^2 in size. PSA-49.9 […].
Needle biopsy—adenocarcinoma of the prostate.
Diagnosis: Adenocarcinoma of the prostate. The patient refused surgical intervention and chemotherapy.
At night a suppository containing 2% of the preparation was administered.

In the case of “9-(2-ethoxycarbonyl)phenyl)-3,6-bis(ethylamino)2,7-dimethylxanthyl chloride [rhodamine 6G]”, the “decrease of sizes of the tumors” value in data set [1] (5% ointment, over 2 months, before 5×7×9 cm) is 70%. The “recurrence of the melanoma” value in data set [1] (over 3 years) is recorded as “no recurrence”. The “blood analyses against the treatment background” value in data set [2] was “normal”. Also, the “patient's condition” value in data set [2] (73, first week, 1% solution oral, microenema, 1% suppository) is listed as “basically no change”. Besides, the “patient's condition” value in data set [2] (one year after treatment) was “significantly improved”. Also, the “patient's condition” value in data set [2] (third week after start of treatment) is reported as “improved”. In data set [2] (three months after start of treatment), the “amyloid foci in the brain, CT scan” value is given as “reduction of amyloid foci in the brain”. For the same substance, in data set [3], the “severity of the pain” value is “decreased”. For the same substance, in data set [4] (5 g in 250 ml water three times a day, 5% suppositories, 2 months), the “condition of the patient” value is “gradually improved”. In data set [4] (after oral/rectal 2 months and 2 g i.v. twice a week 2 months), the “size of the heart, echocardiogram” value is recorded as “reduced”. Moreover, in data set [4] (after treatment), the “blood and urine analyses” value is recorded as “in the normal range”; the “dilation of the left and right atria, echocardiogram” value is “significantly reduced”; the “fibrillation on the EKG” value is reported as “no fibrillation”; the “liver and kidneys, ultrasound scan” value was “normal size”. Besides, in data set [4] (after treatment), the “patient's complaints” value is on record as “no complaints” and the “voltage waves on the EKG” value is “in the normal range”. The “pain experienced on urination” value in data set [5] (40 days powder oral and 2% suppository) is reported as “decreased in intensity”. The “decrease of size of the prostate, ultrasound” value in data set [5] (after 40 days, before approximately 85 cm^3) is 40%. Moreover, the “recurrence of the cancer” value in data set [5] (over 2 years) was “No recurrence”. For the same substance, the “prostate size, ultrasound” value in data set [5] (subsequent examination after further 2 weeks oral and enemas) is reported as “approximately 35 cm^3”. The same substance gave a PSA in data set [5] (subsequent examination, before 49.9 ng/mL) of 1 ng/mL.
